Experiment [1] relates to Acinetobacter baumannii NCTC 13420. Put plainly: MIC, broth microdilution (CLSI) versus planktonic bacteria. Format: cell-based. The note with it: NCTC13420; Acinetobacter baumannii NCTC 13420; 16-20 h; mode of three independent experiments; read-out: MIC, Ab NCTC 13420. (In general: Broth dilution looks for growth in wells or tubes with falling amounts of substance.)
The test system of experiment [2] is Acinetobacter baumannii ATCC 19606. The experiment is described as above. Format: cell-based. The settings on record: ATCC19606; Acinetobacter baumannii ATCC 19606; 16-20 h; mode of three independent experiments; read-out: MIC, Ab ATCC 19606.
The subject of experiment [3] is Enterobacter cloacae NCTC 13406. The experiment is described as above. Format: cell-based. The note with it: NCTC13406; Enterobacter cloacae NCTC 13406; 16-20 h; mode of three independent experiments; read-out: MIC, Ecl NCTC 13406.
For experiment [4], the system named is Escherichia coli ATCC 25922. The description is as above. Format: cell-based. The note with it: ATCC25922; Escherichia coli ATCC 25922; 16-20 h; mode of three independent experiments; read-out: MIC, Ec ATCC 25922.
In another experiment the test system is E. coli ATCC BAA-2452. Described as above. The experiment is classed as cell-based. The note with it: Escherichia coli ATCC BAA-2452; 16-20 h; mode of three independent experiments; read-out: MIC, Ec ATCC BAA 2452.
The test system of another experiment is E. coli NCTC 13476. Described as above. Format: cell-based. The note with it: NCTC13476; Escherichia coli NCTC 13476; 16-20 h; mode of three independent experiments; read-out: MIC, Ec NCTC 13476.
The next experiment relates to E. coli MG1655. Described as above. Format: cell-based, Escherichia coli. The note with it: Escherichia coli, MG1655, read-out: MIC, Ec MG1655 WT.
Experiment [5] relates to Haemophilus influenzae ATCC 49247. The description is as above. The experiment is classed as cell-based. The note with it: ATCC49247; Haemophilus influenzae ATCC 49247; 16-20 h; mode of three independent experiments; read-out: MIC, Hi ATCC 49247.
In experiment [6] the test system is Staphylococcus aureus ATCC 29213. The experiment is described as above. The experiment is classed as cell-based. The settings on record: ATCC29213; Staphylococcus aureus ATCC 29213; 16-20 h; mode of three independent experiments; read-out: MIC, Sa ATCC 29213.
The test system of experiment [7] is Streptococcus pneumoniae ATCC 49619. The experiment is described as above. The note with it: ATCC49619; Streptococcus pneumoniae ATCC 49619; 16-20 h; mode of three independent experiments; read-out: MIC, Sp ATCC 49619. Format: cell-based.
The subject of a further experiment is E. coli MG1655 S83L. The experiment is classed as cell-based, Escherichia coli. The note with it: compared to the isogenic parent strain E. coli MG1655; S83L mutation on DNA gyrase subunit GyrA.
For a further experiment, the system named is E. coli MG1655 D87G. Format: cell-based, Escherichia coli. The settings on record: compared to the isogenic parent strain E. coli MG1655; D87G mutation on DNA gyrase subunit GyrA.
Experiment [8] deals with human hepatic cell line (HepG2 ATCC HB-8065). Put plainly: Human cell viability assay (CellTiter-Glo). The note with it: Homo sapiens, HepG2, 24 h, read-out: IC50 (μg/mL) HepG2.
For experiment [9], the system named is Pseudomonas aeruginosa ATCC 27853. Put plainly: MIC, broth microdilution (CLSI) versus planktonic bacteria. Format: cell-based. The note with it: ATCC27853; Pseudomonas aeruginosa ATCC 27853; 16-20 h; mode of three independent experiments; read-out: MIC, Pa ATCC 27853.

Each structure is given as a SMILES string. Converted amounts (≈) assume the structure as drawn.

Regarding `N#Cc1ccc2ccc(=O)n(CCN[C@H]3CC[C@H]4[C@H](C3)OC(=O)N4c3ccc4c(n3)NC(=O)CO4)c2c1` [Compound 56, 1-(2-{[(3aS,6S,7aS)-2-oxo-3-{3-oxo-2H,3H,4H-pyrido[3,2-b][1,4]oxazin-6-yl}-octahydro-1,3-benzoxazol-6-yl]amino}ethyl)-2-oxo-1,2-dihydroquinoline-7-carbonitrile], the MIC (in [1]; in [2]; in experiment [3]; in experiment [4]; with E. coli ATCC BAA-2452; with E. coli NCTC 13476) was below 1 µg/mL in each case. The MIC (in the experiment with E. coli MG1655; in [5]; in [6]; in experiment [7]) was below 1 µg/mL throughout. In the experiment on E. coli MG1655 S83L, the “Fold increase in MIC, E. coli MG1655 S83L” value came out at 1 fold. The “Fold increase in MIC, E. coli MG1655 D87G” value in the experiment with E. coli MG1655 D87G is 2 fold. The IC50 in experiment [8] lay in the range of 10 to 100 µg/mL (≈ 20 to 200 µM).

`O=C1COc2ccc(N3C(=O)O[C@H]4C[C@@H](NCCn5c(=O)cnc6ccc(F)cc65)CC[C@@H]43)nc2N1` [Compound 84, 1-(2-{[(3aS,6S,7aS)-2-oxo-3-{3-oxo-2H,3H,4H-pyrido[3,2-b][1,4]oxazin-6-yl}-octahydro-1,3-benzoxazol-6-yl]amino}ethyl)-7-fluoro-1,2-dihydroquinoxalin-2-one]: the MIC (in [2]; in [3]; in [4]; in the experiment with E. coli ATCC BAA-2452; with E. coli NCTC 13476; in the experiment on E. coli MG1655) was below 1 µg/mL in each case. The MIC was below 1 µg/mL in experiment [5], 1 to 10 µg/mL (≈ 2.02 to 20.2 µM) in experiment [9], below 1 µg/mL in [6] and below 1 µg/mL in experiment [7]. Also, the “Fold increase in MIC, E. coli MG1655 S83L” value in the experiment on E. coli MG1655 S83L is listed as 1 fold. Besides, in the experiment with E. coli MG1655 D87G, the “Fold increase in MIC, E. coli MG1655 D87G” value came out at 1 fold. The IC50 in [8] lay in the range of 10 to 100 µg/mL (≈ 20.2 to 202 µM).

Values taken from US10487093B2, “Heterocyclic compounds, in particular 2-oxo-4,4,5,5,6,6,7,7-octahydrobenzoxazole derivatives, and their use as antibacterial compounds” (priority 2016, dated 2019).
